Earlier results on 3 compounds are cited in patent publication US12564552B2, “Oral product with a basic amine and an ion pairing agent” (NICOVENTURES TRADING LIMITED, priority 2021, dated 2026).

Assay in data set [1]: not given
This is another data set of the same source.

Another data set has as its system human buccal tissue. The settings on record: nicotine solution pH=6 vs pH 8.1, perfusion cell, Adrian et al.

Take `CC(/C=C/C=C(C)/C=C/C(=O)O)=C\C=C\C=C(C)\C=C\C=C(C)\C=C\C(=O)O` (stereo in doubt) [norbixin, (2E,4E,6E,8E,10E,12E,14E,16E,18E)-4,8,13,17-tetramethylicosa-2,4,6,8,10,12,14,16,18-nonaenedioic acid]: the solubility in water entry was “water-soluble”.

In the case of `CN1CCCC1c1cccnc1` (stereo not shown) [nicotine], the “log Ka1 (pyridine ring nitrogen)” value in data set [1] (pyridine ring nitrogen) was 3.41. The “log Ka2 (pyrrolidine ring nitrogen)” value in data set [1] (pyrrolidine ring nitrogen) is given as 8.02. The “factor by which diffusion rate is reduced at pH 6 relative to pH 8.1” value in the data set on human buccal tissue is listed as around 7.

Take `COC(=O)/C=C/C(C)=C\C=C\C(C)=C\C=C\C=C(C)\C=C\C=C(C)\C=C\C(=O)O` [bixin, (2E,4E,6E,8E,10E,12E,14E,16Z,18E)-20-methoxy-4,8,13,17-tetramethyl-20-oxoicosa-2,4,6,8,10,12,14,16,18-nonaenoic acid]: the “solubility in fats and alcohols” value was “soluble in fats and alcohols”; the solubility in water entry is “insoluble in water”. In addition, the chemical stability entry (isolated, isomerizes to trans-bixin (β-bixin)) is “chemically unstable when isolated”.
